{
  "source": "patent US20240327493A1",
  "about": "(GEORGE MASON UNIVERSITY, priority 2023, published 2024)",
  "test_system": "human PBMCs co-cultured with OVCAR8 cells",
  "test": "Co-culture of OVCAR8 cells and stimulated human PBMCs, 1:10 OVCAR8:PBMC ratio",
  "format": "cell-based",
  "details": "for Immunosuppressive effect (reduction in TNFα/cytokines) compared with controls rPD-L1 and MN_Null: 1:10 OVCAR8:PBMC co-culture, FIG. 10D; for TNFα levels / IL-2 levels: 1:10 OVCAR8:PBMC, 24 hours, vs untreated co-culture control; for TNFα levels: ELISA, FIG. 10C; for IL-2 levels: FIG. 10B",
  "description": "For this model, PBMCs and cancer cells were both stimulated prior to co-culture to promote expression of PD-1 and PD-L1, respectively.\nOVCAR8 cells, generously provided by the Gottesman Lab (National Institutes of Health, Bethesda, MD, USA), and MDA-MB-231 cells (American Type Culture Collection, Rockville, MD, USA) were cultured in Gibco RPMI 1640 media (ThermoFisher Scientific, Cat. No. 11-875-093) supplemented with 10% Gibco fetal bovine serum (ThermoFisher Scientific, Cat. No. 10437028), and 1% penicillin/streptomycin (10,000 U/mL pen, 10 mg/mL strcp) from MilliporeSigma (Burlington, MA, USA, Cat. No. P4333). Cells were cultured at 37° C. and 5% CO2. Passage number was kept below 3 for co-culture assay. Human peripheral blood mononuclear cells were purchased frozen from […] PBMCs were thawed according to manufacturer's instructions one day before co-culture and cultured in the same media and conditions as cancer cell lines.\nThe next day, cells were stimulated with 100 ng/mL IFNγ and two vials of human PBMCs were thawed. On Day 3, concentrations of PBMCs and OVCAR8 cells (harvested from a control well) were measured using the QuadCount Automated Cell Counter. The concentration of PBMCs required for a 1:10 OVCAR8:PBMC ratio was calculated from the OVCAR8 concentration. PBMCs were plated on a separate 24-well plate (1 mL/well) and stimulated with 5 μg/mL of anti-CD3 and 5 μg/mL of anti-CD28 for 30 minutes before drug treatment. […] After 30 minutes, media was removed from OVCAR8 wells without treatment, and replaced with 1 mL of treated PBMCs. After 24 hours, the supernatants were collected from each well, and centrifuged at 10,000×g for 5 minutes to remove any remaining cells.\nBriefly, samples from co-culture experiments with excess OVCAR8 ratios were diluted 1:10 in assay buffer, and samples from co-culture experiments with excess PBMC ratios were diluted 1:5 in assay buffer. Next, 10 μL of the diluted samples were mixed with 10 μL of an IL-2 antibody-oligonucleotide conjugate mixture and added to a 96-well working plate. Samples with excess OVCAR8 ratios were allowed to incubate overnight at 4° C. Samples with excess PBMCs were allowed to incubate for 1 hour at room temperature. Next, 80 μL of qPCR reaction mixture containing master mix and DNA ligase was added to each well. The plate was centrifuged at 2,500×g for 2 minutes. Samples were then added in triplicate (20 μL/well) to a 96-well PCR plate (ThermoFisher Scientific). PCR was run according to manufacturer's instructions using the QuantStudio 7 Pro Real-Time PCR System equipped with a 96-well, 0.2 mL block from ThermoFisher Scientific.\nRemaining samples from experiments with excess PBMC ratios were analyzed using TNFα (Cat. No. 430204) ELISA MAX Deluxe Sets (BioLegend, San Diego, CA, USA) according to manufacturer's instructions. Briefly, 96-well Nunc™ MaxiSorp™ ELISA Plates (BioLegend, Cat. No. 423501) were coated with capture antibodies for TNFα and incubated overnight at 4° C. The next day, the plate was washed 4× with 1×PBS+0.05% Tween-20 (PBS-T). To block non-specific binding, 200 μL of assay dilutant buffer was added to each well and the plate was incubated at room temperature for 1 hour on a shaker. The plate was washed as before, and 100 μL of the samples or standards were added to each well in triplicate and incubated at room temperature for 2 hours on a shaker. The plate was washed 4× and 100 μL of detection antibody for TNFα was added to each well, and the plate was incubated at room temperature for 1 hour on a shaker. The plate was washed 4× and 100 μL of Avidin-HRP was added to each well, and the plate was incubated at room temperature for 30 minutes on a shaker.",
  "note": "“Also recorded” adds a separate entry of the source.",
  "data": [
    {"smiles": "CC[C@H](C)[C@@H]1NC(=O)[C@H](CCSC)NC(=O)[C@H](C)NC(=O)[C@H](CCCNC(=N)N)NC(=O)[C@@H](N)CSSC[C@@H](C(=O)O)NC(=O)[C@H]([C@@H](C)CC)NC(=O)[C@H](CCCNC(=N)N)N(C)C(=O)[C@H](CCCCN)NC(=O)[C@H](Cc2ccc(O)cc2)NC(=O)[C@H](CC(=O)O)NC(=O)[C@H](C)NC(=O)CNC(=O)CNC(=O)[C@H](Cc2ccc(O)cc2)NC(=O)[C@H](CO)NC1=O", "note": "[SEQ ID NO. 5, CRAMISYGGADYKXIC]", "values": [
      {"measurement": "Immunosuppressive effect (reduction in TNFα/cytokines) compared with controls rPD-L1 and MN_Null", "setting": "listed as MN 1.4", "value": "less potent than recombinant PD-L1"},
      {"measurement": "Immunosuppressive effect (reduction in TNFα/cytokines) compared with controls rPD-L1 and MN_Null", "setting": "listed as MN1.4", "value": "not a significant difference in cytokine levels between the MN1.4 and rPD-L1 treatment groups; also recorded: recapitulated the biological effects of full-length PD-L1; also recorded: the same reduction in TNFα as rPD-L1"},
      {"measurement": "TNFα levels", "setting": "listed as MN 1.4", "value": "reduced in a dose-dependent manner"},
      {"measurement": "TNFα levels", "setting": "listed as MN1.4", "value": "same pattern of T cell suppression was observed; also recorded: significantly decreased; also recorded: shown to decrease IL-2 and TNFα secretion; also recorded: A reduction in this cytokine was also observed"},
      {"measurement": "IL-2 levels", "setting": "listed as MN 1.4", "value": "reduced in a dose-dependent manner"},
      {"measurement": "IL-2 levels", "setting": "listed as MN1.4", "value": "same pattern of T cell suppression was observed; also recorded: significantly decreased; also recorded: shown to decrease IL-2 and TNFα secretion; also recorded: A dose-dependent reduction in IL-2 was observed"}
    ]}
  ]
}
